{"source": "paper PMC5218480", "about": "(PLoS ONE, 2017)", "tested_on": "MV-4-11 cells", "test": "Gene expression microarray analysis (Affymetrix PrimeView) and GSEA", "format": "cell-based, human", "design": "RFU PODN (11730768_x_at) / Fold change /veh PODN (11730768_x_at) / RFU LINC00158 (11744669_a_at) / Fold change /veh LINC00158 (11744669_a_at) / RFU DUSP10 (11751237_a_at) / Fold change /veh DUSP10 (11751237_a_at) / RFU ID3 (11757404_x_at) / Fold change /veh ID3 (11757404_x_at) / RFU PLEKHG5 (11737974_s_at) / Fold change /veh PLEKHG5 (11737974_s_at) / RFU LRRC4B (11730491_at) / Fold change /veh LRRC4B (11730491_at) / RFU GIMAP4 (11747438_a_at) / Fold change /veh GIMAP4 (11747438_a_at) / RFU KRT8 (11758183_x_at) / Fold change /veh KRT8 (11758183_x_at) / RFU CNN1 (11734310_a_at) / Fold change /veh CNN1 (11734310_a_at) / RFU VPS37D (11726825_at) / Fold change /veh VPS37D (11726825_at) / RFU C10orf10 (11716522_x_at) / Fold change /veh C10orf10 (11716522_x_at) / RFU KIR2DL2 /// KIR2DL4 /// KIR2DL5A /// KIR2DL5B /// KIR2DS1 /// KIR2DS2 /// KIR2DS3 /// KIR2DS4 /// KIR3DL3 /// KIR3DL3 /// KIR3DS1 (11738374_at) / Fold change /veh KIR2DL2 /// KIR2DL4 /// KIR2DL5A /// KIR2DL5B /// KIR2DS1 /// KIR2DS2 /// KIR2DS3 /// KIR2DS4 /// KIR3DL3 /// KIR3DL3 /// KIR3DS1 (11738374_at) / RFU C1QL1 (11718748_at) / Fold change /veh C1QL1 (11718748_at) / RFU TMPRSS4 (11747572_a_at) / Fold change /veh TMPRSS4 (11747572_a_at) / RFU HAMP (11756126_x_at) / Fold change /veh HAMP (11756126_x_at) / RFU RNFT2 (11725882_a_at) / Fold change /veh RNFT2 (11725882_a_at) / RFU NR4A2 (11747474_a_at) / Fold change /veh NR4A2 (11747474_a_at) / RFU ABCC12 (11746883_a_at) / Fold change /veh ABCC12 (11746883_a_at) / RFU TMEM136 (11760407_x_at) / Fold change /veh TMEM136 (11760407_x_at) / RFU CLDN22 /// WWC2 (11732394_at) / Fold change /veh CLDN22 /// WWC2 (11732394_at) / RFU HLA-DPB1 (11760878_x_at) / Fold change /veh HLA-DPB1 (11760878_x_at) / RFU SPINT1 (11716480_a_at) / Fold change /veh SPINT1 (11716480_a_at) / RFU GAP43 (11754022_s_at) / Fold change /veh GAP43 (11754022_s_at) / RFU A4GNT (11735810_at) / Fold change /veh A4GNT (11735810_at) / RFU PRB3 (11715151_x_at) / Fold change /veh PRB3 (11715151_x_at) / RFU TUBB4B (11761932_at) / Fold change /veh TUBB4B (11761932_at) / RFU CAPN14 (11732068_a_at) / Fold change /veh CAPN14 (11732068_a_at) / RFU TMCC2 (11721928_a_at) / Fold change /veh TMCC2 (11721928_a_at) / RFU IRGQ (11745062_a_at) / Fold change /veh IRGQ (11745062_a_at) / RFU FAM174B (11720279_a_at) / Fold change /veh FAM174B (11720279_a_at) / RFU TMPRSS4 (11748680_a_at) / Fold change /veh TMPRSS4 (11748680_a_at) / RFU FAM212B (11763350_a_at) / Fold change /veh FAM212B (11763350_a_at) / RFU PLEKHG5 (11743358_a_at) / Fold change /veh PLEKHG5 (11743358_a_at) / RFU ZSCAN30 (11745921_a_at) / Fold change /veh ZSCAN30 (11745921_a_at) / RFU CMKLR1 (11741424_a_at) / Fold change /veh CMKLR1 (11741424_a_at) / RFU LOC101060620 /// MAPK8IP1 (11723275_at) / Fold change /veh LOC101060620 /// MAPK8IP1 (11723275_at) / RFU SPTSSB (11747773_x_at) / Fold change /veh SPTSSB (11747773_x_at) / RFU PRSS12 (11739890_at) / Fold change /veh PRSS12 (11739890_at) / RFU BIN1 (11741810_x_at) / Fold change /veh BIN1 (11741810_x_at) / RFU WNT11 (11732464_a_at) / Fold change /veh WNT11 (11732464_a_at) / RFU C10orf10 (11716521_a_at) / Fold change /veh C10orf10 (11716521_a_at) / RFU C5orf56 (11738089_at) / Fold change /veh C5orf56 (11738089_at) / RFU CYB561 (11721691_x_at) / Fold change /veh CYB561 (11721691_x_at) / RFU ANKRD19P (11752326_a_at) / Fold change /veh ANKRD19P (11752326_a_at) / RFU OR2T12 /// OR2T33 /// OR2T8 (11738714_s_at) / Fold change /veh OR2T12 /// OR2T33 /// OR2T8 (11738714_s_at) / RFU VCAN (11748164_a_at) / Fold change /veh VCAN (11748164_a_at) / RFU JSRP1 (11732532_at) / Fold change /veh JSRP1 (11732532_at) / RFU KRTAP10-11 (11738290_x_at) / Fold change /veh KRTAP10-11 (11738290_x_at) / RFU MYO3A (11730013_a_at) / Fold change /veh MYO3A (11730013_a_at) / RFU EBF3 (11725865_a_at) / Fold change /veh EBF3 (11725865_a_at) / RFU CAMK2N1 (11719241_x_at) / Fold change /veh CAMK2N1 (11719241_x_at) / RFU C5orf56 (11738088_a_at) / Fold change /veh C5orf56 (11738088_a_at) / RFU OLFML3 (11715873_a_at) / Fold change /veh OLFML3 (11715873_a_at) / RFU LOC100653217 /// NTM (11731650_a_at) / Fold change /veh LOC100653217 /// NTM (11731650_a_at) / RFU MAPK11 (11762145_a_at) / Fold change /veh MAPK11 (11762145_a_at) / RFU FIZ1 (11724087_x_at) / Fold change /veh FIZ1 (11724087_x_at) / RFU OASL (11726364_x_at) / Fold change /veh OASL (11726364_x_at) / RFU SOX15 (11748057_x_at) / Fold change /veh SOX15 (11748057_x_at) / RFU CD79A (11719716_a_at) / Fold change /veh CD79A (11719716_a_at) / RFU HIST1H1D (11736915_at) / Fold change /veh HIST1H1D (11736915_at) / RFU CASKIN2 (11723855_a_at) / Fold change /veh CASKIN2 (11723855_a_at) / RFU LOC730098 (11760151_x_at) / Fold change /veh LOC730098 (11760151_x_at) / RFU OR4N2 (11742367_at) / Fold change /veh OR4N2 (11742367_at) / RFU PRRT2 (11749266_a_at) / Fold change /veh PRRT2 (11749266_a_at) / RFU SNX32 (11753110_a_at) / Fold change /veh SNX32 (11753110_a_at) / RFU CDHR5 (11726645_a_at) / Fold change /veh CDHR5 (11726645_a_at) / RFU RCAN1 (11760418_a_at) / Fold change /veh RCAN1 (11760418_a_at) / RFU FAM167A (11723789_a_at) / Fold change /veh FAM167A (11723789_a_at) / RFU FAM26E (11764081_at) / Fold change /veh FAM26E (11764081_at) / RFU ISYNA1 (11749810_s_at) / Fold change /veh ISYNA1 (11749810_s_at) / RFU ACY1 (11761880_at) / Fold change /veh ACY1 (11761880_at) / RFU 11764098_at / Fold change /veh 11764098_at / RFU SAMD14 (11745864_x_at) / Fold change /veh SAMD14 (11745864_x_at) / RFU NPB (11741838_a_at) / Fold change /veh NPB (11741838_a_at) / RFU TMPRSS6 (11731388_a_at) / Fold change /veh TMPRSS6 (11731388_a_at) / RFU KRTAP10-2 (11738614_at) / Fold change /veh KRTAP10-2 (11738614_at) / RFU ARHGAP8 /// PRR5-ARHGAP8 (11727945_x_at) / Fold change /veh ARHGAP8 /// PRR5-ARHGAP8 (11727945_x_at) / RFU KRTAP5-7 /// NADSYN1 (11734609_at) / Fold change /veh KRTAP5-7 /// NADSYN1 (11734609_at) / RFU RASL12 (11751679_a_at) / Fold change /veh RASL12 (11751679_a_at) / RFU CDKN2B (11736163_a_at) / Fold change /veh CDKN2B (11736163_a_at) / RFU PRF1 (11729649_at) / Fold change /veh PRF1 (11729649_at) / RFU, ZNF638 /// ZNF638-IT1 / Fold change vs veh, ZNF638 /// ZNF638-IT1 / RFU, PANK3 / Fold change vs veh, PANK3 / RFU, SH3YL1 / Fold change vs veh, SH3YL1 / RFU, ZEB2 / Fold change vs veh, ZEB2 / RFU, NRIP1 / Fold change vs veh, NRIP1 / RFU, PTTG1IP / Fold change vs veh, PTTG1IP / RFU, CAPN2 / Fold change vs veh, CAPN2 / RFU, MED14 / Fold change vs veh, MED14 / RFU, SNORA58 / Fold change vs veh, SNORA58 / RFU, C1orf63 / Fold change vs veh, C1orf63 / RFU, LRRFIP1 / Fold change vs veh, LRRFIP1 / RFU, NDUFAF7 / Fold change vs veh, NDUFAF7 / RFU, SLC12A2 / Fold change vs veh, SLC12A2 / RFU, IBTK / Fold change vs veh, IBTK / RFU, ESF1 / Fold change vs veh, ESF1 / Fold change vs veh, TMEM50B / RFU, TAOK1 / Fold change vs veh, TAOK1 / RFU, ACBD3 / Fold change vs veh, ACBD3 / RFU, TMA16 / Fold change vs veh, TMA16 / RFU, RWDD3 / Fold change vs veh, RWDD3 / RFU, BCAT1 / Fold change vs veh, BCAT1 / RFU, EDEM3 / Fold change vs veh, EDEM3 / RFU, TMEM33 / Fold change vs veh, TMEM33 / RFU, WDR75 / Fold change vs veh, WDR75 / RFU, AHCTF1 / Fold change vs veh, AHCTF1 / RFU, TFRC / Fold change vs veh, TFRC / RFU, ZDHHC17 / Fold change vs veh, ZDHHC17 / RFU, NOM1 / Fold change vs veh, NOM1 / RFU, ARL8B / Fold change vs veh, ARL8B / RFU, ZBTB11 / Fold change vs veh, ZBTB11 / RFU, TAMM41 / Fold change vs veh, TAMM41 / RFU, KIAA1704 /// LOC100996395 / Fold change vs veh, KIAA1704 /// LOC100996395 / RFU, ING1 / Fold change vs veh, ING1 / RFU, TRMT61B / Fold change vs veh, TRMT61B / RFU, FUBP3 / Fold change vs veh, FUBP3 / RFU, TP53 / Fold change vs veh, TP53 / RFU, TNKS2 / Fold change vs veh, TNKS2 / RFU, ZFP14 / Fold change vs veh, ZFP14 / RFU, ACTR2 / Fold change vs veh, ACTR2 / RFU, PPP3R1 / Fold change vs veh, PPP3R1 / RFU, PIK3R1 / Fold change vs veh, PIK3R1 / RFU, HNRNPA1 / Fold change vs veh, HNRNPA1 / RFU, RNF170 / Fold change vs veh, RNF170 / RFU, ZNF28 / Fold change vs veh, ZNF28 / RFU, RNGTT / Fold change vs veh, RNGTT / RFU, OGT / Fold change vs veh, OGT / RFU, BRD1 / Fold change vs veh, BRD1 / RFU, MARS / Fold change vs veh, MARS / RFU, ZNF655 / Fold change vs veh, ZNF655 / RFU, FAHD1 / Fold change vs veh, FAHD1 / RFU, BDP1 / Fold change vs veh, BDP1 / RFU, LRRCC1 / Fold change vs veh, LRRCC1 / RFU, ARID1A / Fold change vs veh, ARID1A / RFU, ZNF146 / Fold change vs veh, ZNF146 / RFU, ZNF330 / Fold change vs veh, ZNF330 / RFU, GPN3 / Fold change vs veh, GPN3 / RFU, C9orf123 / Fold change vs veh, C9orf123 / RFU, N4BP2L2 / Fold change vs veh, N4BP2L2 / RFU, ARFIP1 / Fold change vs veh, ARFIP1 / RFU, FAM179B / Fold change vs veh, FAM179B / RFU, BCL10 / Fold change vs veh, BCL10 / RFU, UHRF1BP1L / Fold change vs veh, UHRF1BP1L / RFU, BET1 / Fold change vs veh, BET1 / RFU, CNOT2 / Fold change vs veh, CNOT2 / RFU, ZNF268 / Fold change vs veh, ZNF268 / Fold change vs veh, ZNF507 / RFU, DGCR2 / Fold change vs veh, DGCR2 / RFU, WDSUB1 / Fold change vs veh, WDSUB1 / Fold change vs veh, HSP90B1 /// MIR3652 / RFU, ADSS / Fold change vs veh, ADSS / RFU, GK / Fold change vs veh, GK / RFU, ZNF148 / Fold change vs veh, ZNF148 / RFU, TAF9 / Fold change vs veh, TAF9 / RFU, SLC1A5 / Fold change vs veh, SLC1A5 / RFU, SLMO2 / Fold change vs veh, SLMO2 / RFU, ABCC4 / Fold change vs veh, ABCC4 / RFU, LOC101060439 /// RAP1B / Fold change vs veh, LOC101060439 /// RAP1B / RFU, RFX7 / Fold change vs veh, RFX7 / RFU, GTPBP10 / Fold change vs veh, GTPBP10 / RFU, CNEP1R1 / Fold change vs veh, CNEP1R1 / RFU, BIVM-ERCC5 /// ERCC5 / Fold change vs veh, BIVM-ERCC5 /// ERCC5 / RFU, ILF3 / Fold change vs veh, ILF3 / RFU 11762660_at / Fold change /veh 11762660_at / RFU VCAN (11757783_s_at) / Fold change /veh VCAN (11757783_s_at) / RFU DDX43 (11728927_at) / Fold change /veh DDX43 (11728927_at) / RFU KRT8 (11758188_x_at) / Fold change /veh KRT8 (11758188_x_at) / RFU NKD1 (11759106_at) / Fold change /veh NKD1 (11759106_at) / RFU SRD5A1 (11742802_a_at) / Fold change /veh SRD5A1 (11742802_a_at) / RFU TPSAB1 /// TPSB2 (11721975_s_at) / Fold change /veh TPSAB1 /// TPSB2 (11721975_s_at) / RFU GSTM3 (11746129_a_at) / Fold change /veh GSTM3 (11746129_a_at) / RFU IL23R (11737362_x_at) / Fold change /veh IL23R (11737362_x_at) / RFU TMEM51 (11727254_a_at) / Fold change /veh TMEM51 (11727254_a_at) / RFU PIWIL2 (11732686_x_at) / Fold change /veh PIWIL2 (11732686_x_at) / RFU ORM1 (11744905_x_at) / Fold change /veh ORM1 (11744905_x_at) / RFU CCDC152 (11743942_at) / Fold change /veh CCDC152 (11743942_at) / RFU ECM1 (11717891_a_at) / Fold change /veh ECM1 (11717891_a_at) / RFU IL23R (11748794_a_at) / Fold change /veh IL23R (11748794_a_at) / RFU TNFAIP8L3 (11732012_x_at) / Fold change /veh TNFAIP8L3 (11732012_x_at) / RFU MBOAT4 (11741988_at) / Fold change /veh MBOAT4 (11741988_at) / RFU 11764193_at / Fold change /veh 11764193_at / RFU TMEM53 (11763286_at) / Fold change /veh TMEM53 (11763286_at) / RFU MAGEB2 (11727129_at) / Fold change /veh MAGEB2 (11727129_at) / RFU TMEM200A (11744735_a_at) / Fold change /veh TMEM200A (11744735_a_at) / RFU CCDC152 (11751479_a_at) / Fold change /veh CCDC152 (11751479_a_at) / RFU FAM211A (11726209_a_at) / Fold change /veh FAM211A (11726209_a_at) / RFU RGS16 (11746705_a_at) / Fold change /veh RGS16 (11746705_a_at) / RFU VCAN (11755009_s_at) / Fold change /veh VCAN (11755009_s_at) / RFU RHOB (11743442_s_at) / Fold change /veh RHOB (11743442_s_at) / RFU RGS16 (11720943_a_at) / Fold change /veh RGS16 (11720943_a_at) / RFU RGS16 (11720944_at) / Fold change /veh RGS16 (11720944_at) / RFU, VPS4B / Fold change vs veh, VPS4B / RFU, CREB1 / Fold change vs veh, CREB1 / RFU, DNAJC13 / Fold change vs veh, DNAJC13 / RFU, GNAQ / Fold change vs veh, GNAQ / RFU, CDK5R1 / Fold change vs veh, CDK5R1 / RFU, ZRANB3 / Fold change vs veh, ZRANB3 / RFU, CUL4A / Fold change vs veh, CUL4A / RFU, CCNY / Fold change vs veh, CCNY / RFU, UFL1 / Fold change vs veh, UFL1 / RFU, COG3 / Fold change vs veh, COG3 / RFU, DIAPH2 / Fold change vs veh, DIAPH2 / RFU, SKA2 / Fold change vs veh, SKA2 / RFU, AFF3 / Fold change vs veh, AFF3 / RFU, LMF1 / Fold change vs veh, LMF1 / RFU, IPO11 / Fold change vs veh, IPO11 / RFU, DFFB / Fold change vs veh, DFFB / RFU, FOXP1 / Fold change vs veh, FOXP1 / RFU, CARD8 / Fold change vs veh, CARD8 / RFU, STRN3 / Fold change vs veh, STRN3 / RFU, ADK / Fold change vs veh, ADK / RFU, RASSF2 / Fold change vs veh, RASSF2 / RFU, WIPF1 / Fold change vs veh, WIPF1 / RFU, LARP1B / Fold change vs veh, LARP1B / RFU, RASA1 / Fold change vs veh, RASA1 / RFU, RB1 / Fold change vs veh, RB1 / RFU, PPFIA1 / Fold change vs veh, PPFIA1 / RFU, MAT2A / Fold change vs veh, MAT2A / RFU, CCT5 / Fold change vs veh, CCT5 / RFU, WDR92 / Fold change vs veh, WDR92 / RFU, CUX1 / Fold change vs veh, CUX1 / RFU, TTC7A / Fold change vs veh, TTC7A / RFU, TMEM135 / Fold change vs veh, TMEM135 / RFU, DEPTOR / Fold change vs veh, DEPTOR / RFU, CPM / Fold change vs veh, CPM / RFU, DNAJB6 / Fold change vs veh, DNAJB6 / RFU, CACNA2D3 / Fold change vs veh, CACNA2D3 / RFU, DTX4 / Fold change vs veh, DTX4 / RFU, TFCP2 / Fold change vs veh, TFCP2 / RFU, GMCL1 /// GMCL1P1 / Fold change vs veh, GMCL1 /// GMCL1P1 / RFU, AEBP2 / Fold change vs veh, AEBP2 / RFU, SNHG1 /// SNORD22 /// SNORD25 /// SNORD26 /// SNORD27 /// SNORD28 /// SNORD29 /// SNORD31 / Fold change vs veh, SNHG1 /// SNORD22 /// SNORD25 /// SNORD26 /// SNORD27 /// SNORD28 /// SNORD29 /// SNORD31 / Fold change (Aza/veh), C12orf56 (ProbeSet 11735607_a_at) / Fold change (ACY-1035/veh), C12orf56 (ProbeSet 11735607_a_at) / Fold change (Aza/veh), FGFR1OP (ProbeSet 11751329_s_at) / Fold change (ACY-1035/veh), FGFR1OP (ProbeSet 11751329_s_at) / Fold change (Aza/veh), VPS36 (ProbeSet 11739960_a_at) / Fold change (ACY-1035/veh), VPS36 (ProbeSet 11739960_a_at) / RFU SYPL1 (11715823_x_at) / Fold change /veh SYPL1 (11715823_x_at) / RFU IGFBP7 (11715501_s_at) / Fold change /veh IGFBP7 (11715501_s_at) / RFU REEP3 (11722064_at) / Fold change /veh REEP3 (11722064_at) / RFU IGLL1 (11728026_x_at) / Fold change /veh IGLL1 (11728026_x_at): dose or concentration left out as unconfirmed", "settings": "MV-4-11 cells, 48 hours"}
{"smiles": "Nc1ncn([C@@H]2O[C@H](CO)[C@@H](O)[C@H]2O)c(=O)n1", "note": "[azacitidine]", "values": [{"measurement": "Fold change /veh LINC00158 (11744669_a_at)", "result": 1.04}]}
